From patent publication US20260265279A1, “RHO-ASSOCIATED PROTEIN KINASE INHIBITOR AND PREPARATION AND USE THEREOF” (Shanghai Zhimeng Biopharma, Inc, priority 2022, published 2026) come the findings set out here.

For one data set, the target named is T1, ROCK2 (Homo sapiens, UniProt O75116).
T1 construct: purchased Invitrogen PV3759
The experiment in a line: Kinase IC50 assay, HTRF kinEASE STK S2 kit, ROCK2. Particulars: ATP 1 μM, 2.5 ng/well enzyme, 120 min. It is filed as biochemical. As to the method: (§1) Kinase IC50 assay was performed using the kinase assay kit HTRF kinEASE STK S2 kit (Cat #62ST2PEC, Cisbio). Kinases ROCK1 (Cat #PV3691) and ROCK2 (Cat #PV3759) were purchased from Invitrogen.
(§2) The working solution required for the assay was prepared with the appropriate reagents as described in the kinase assay kit instructions:
(§3) 1 mL of 1× Kinase Buffer contains 200 μL 5× Enzyme buffer, 5 μL 1M MgCl2 (Cat.M8266, Sigma), 1 μL 1M DTT (Cat.D5545, Sigma), 794 μL ddH2O.
(§4) The specific concentrations of STK-biotin substrate and ATP are shown in Table A. STK-biotin substrate and ATP were diluted with 1× kinase buffer to 2.5 times of the reaction concentration.
(§5) Concentrations of ROCK1/ROCK2 are shown in Table A. 5×ROCK1/ROCK2 Kinase working solution was prepared with 1× Kinase Buffer.
(§6) See Table A for the concentrations of Streptavidin-XL665 and STK Antibody-Cryptate in the reaction. 2× Streptavidin-XL665 and STK Antibody-Cryptate Working Solutions were prepared 5 minutes prior to the end of the kinase reaction using Detection Buffer from the kit.
(§7) A 100 μM compound mother solution was prepared using 1× kinase buffer containing 2.5% DMSO, and the mother solution was diluted 4-fold stepwise with the above DMSO-containing kinase buffer to obtain nine different concentrations of the compound solutions to be tested. In addition to the test compound wells, positive control wells (containing all reagents except the compounds) and negative control wells (containing all reagents except the compounds and kinase) were set up. 4 μL of the test compound solution was added to all reaction wells except the control wells and 4 μL of 2.5% DMSO solution was added to the control wells. Then 4 μL of previously prepared substrate and ATP working solution were added to all wells and mix well. Then, 2 μL/well of 5×ROCK1/ROCK2 kinase working solution (containing 2.5 ng ROCK1/ROCK2 kinase) was added to all reaction wells except negative control wells, and the negative control wells were made up to volume with 2 μL of 1× kinase buffer. Mix well, seal with plastic film and incubate at room temperature for 2 hours. Start preparing the assay solution 5 minutes before the end of the kinase reaction. After the end of the kinase reaction, 10 μL of prepared Streptavidin-XL665 and STK Antibody-Cryptate working solution were added to all reaction wells, the plates were sealed and mixed well, and then incubated at room temperature for 1 hour. Finally, the fluorescence signal was detected by SpectraMax i3x Multi-Mode Reader (Molecular Devices) (excitation wavelength is 320 nm, emission wavelength is 665 nm and 615 nm).
(§8) The inhibition rate in each well was calculated from the fluorescence intensity values of each well:
(§9) ER Emission Ratio, Emission light ratio=fluorescence intensity at 665 nm/fluorescence intensity at 615 nm;
(§10) ERcompound, ER of test compound wells; ERvehicle, ER of solvent (positive) control wells, ERblank, ER of blank (negative) control wells.
(§11) The graphs were plotted using the software GraphPad Prism 6.0, while the half inhibitory concentration (IC50) of each compound to be tested was obtained by fitting with Prism 6.0.

Data set [1] is described as follows: Pharmacokinetic study in male SD rats. Particulars: rat, plasma. It is filed as in vivo. The procedure: 1) Purpose of the Study: Obtain the Pharmacokinetic Characterization of the Compounds of the Present Invention in Male SD Rats
For each compound, 6 healthy male SD rats (weight range 200-250 g) was taken and divided into 2 groups of 3 each; Group 1 was administered intravenously in a single dose (see Table 2 for dosage) and Group 2 was administered orally in a single gavage (see Table 2 for dosage, fasted overnight before administration). Blood was collected by jugular vein or cardiac puncture at 0.083 (group 1 only), 0.25, 0.5, 1, 2, 4, 6 (group 2 only), 8 and 24 h after drug administration, respectively, and at least 0.2 mL of whole blood was collected from each sample into EDTA-K2 anticoagulant tubes, and the samples were mixed and placed on wet ice after sample collection, and then centrifuged to separate plasma (6,800 g, 6 min, 2-8° C.) at 1 h. The plasma samples were stored in ultra-low temperature refrigerators before analysis.
Experimental results: The pharmacokinetic parameters after administration were calculated from the blood concentration data obtained by LC-MS/MS assay using the non-compartmental model of WinNonlin® 7.0 software (Pharsight, Inc., USA) and are shown in the table below: […]

The next data set concerns the target T2, ROCK1 (Homo sapiens, UniProt Q13464).
T2 construct: purchased Invitrogen PV3691
Briefly: Kinase IC50 assay, HTRF kinEASE STK S2 kit, ROCK1. It is filed as biochemical. Particulars: ATP 1.5 μM, 2.5 ng/well enzyme, 120 min. The procedure:
as §1, §2, §3, §4, §5, §6, §7, §8, §9, §10, §11

[2] abbreviates: po, gavage 10 mg/kg, fasted overnight.

Molecules are shown by their SMILES.

T1 sequence (O75116 5-554 limits assumed): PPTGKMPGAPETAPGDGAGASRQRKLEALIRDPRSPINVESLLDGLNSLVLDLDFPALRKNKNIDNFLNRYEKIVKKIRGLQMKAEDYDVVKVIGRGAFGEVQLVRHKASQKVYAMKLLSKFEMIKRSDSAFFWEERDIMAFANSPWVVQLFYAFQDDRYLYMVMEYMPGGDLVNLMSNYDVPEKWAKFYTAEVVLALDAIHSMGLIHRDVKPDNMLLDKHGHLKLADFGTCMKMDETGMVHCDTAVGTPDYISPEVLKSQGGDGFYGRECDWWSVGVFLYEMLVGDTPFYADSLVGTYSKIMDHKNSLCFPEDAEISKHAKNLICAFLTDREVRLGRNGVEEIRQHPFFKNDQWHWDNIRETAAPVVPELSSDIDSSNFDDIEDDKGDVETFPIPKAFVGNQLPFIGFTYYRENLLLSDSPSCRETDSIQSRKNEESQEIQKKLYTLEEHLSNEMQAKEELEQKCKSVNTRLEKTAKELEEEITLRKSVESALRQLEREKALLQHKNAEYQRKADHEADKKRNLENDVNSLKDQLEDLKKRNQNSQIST
T2 sequence (Q13464 1-535 limits assumed): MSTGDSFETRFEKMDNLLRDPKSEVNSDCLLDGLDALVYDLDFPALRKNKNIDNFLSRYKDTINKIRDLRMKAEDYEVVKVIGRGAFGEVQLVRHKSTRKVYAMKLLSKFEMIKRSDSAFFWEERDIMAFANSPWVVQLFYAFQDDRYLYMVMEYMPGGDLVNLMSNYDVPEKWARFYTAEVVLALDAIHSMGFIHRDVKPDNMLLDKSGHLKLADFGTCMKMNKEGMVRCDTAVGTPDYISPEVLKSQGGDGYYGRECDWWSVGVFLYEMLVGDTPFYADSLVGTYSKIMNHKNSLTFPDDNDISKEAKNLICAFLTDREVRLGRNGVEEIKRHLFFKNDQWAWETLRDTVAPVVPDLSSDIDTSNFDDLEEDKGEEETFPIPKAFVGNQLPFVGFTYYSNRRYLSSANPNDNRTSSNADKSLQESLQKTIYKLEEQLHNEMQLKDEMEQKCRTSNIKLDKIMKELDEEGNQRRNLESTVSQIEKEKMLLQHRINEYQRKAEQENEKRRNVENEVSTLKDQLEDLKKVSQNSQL

The compound `Cn1c(C#Cc2nccc(Nc3ccc(-c4cn[nH]c4)cc3)n2)ccc1C(=O)N1CC(F)(F)C1` [Compound A1] registered an IC50 against ROCK2 of 0.104 µM. In data set [1] (intravenous injection 1 mg/kg), the AUC(0-t) came to 1210 ng·h/mL, the concentration peaked (Cmax) at 765 ng/mL, the Tmax is 0.08 h and the half-life is 2.05 h. In data set [1] (oral, gavage 10 mg/kg vs intravenous 1 mg/kg), this compound came in with a bioavailability of 11.5%. Also, in data set [1] (setting [2]), the AUC(0-t) came to 1400 ng·h/mL, the Cmax is 251 ng/mL, the Tmax worked out at 1.33 h and the half-life was 3.47 h. At ROCK1, this compound displayed a half-maximal inhibitory concentration (IC50) above 100 µM.
Take `Cc1cc(C(=O)N2CC(O)C2)n(C)c1C#Cc1ncc(F)c(Nc2cc(F)c(-c3cn[nH]c3)cc2F)n1` [Compound A56]: the IC50 against ROCK2 was 0.0193 µM; at ROCK1, above 100 µM.
In the case of `COC1CN(C(=O)c2cc(C)c(C#Cc3ncc(F)c(Nc4cc(F)c(-c5cn[nH]c5)cc4F)n3)n2C)C1` [Compound A57], the IC50 against ROCK2 was 0.0324 µM; on ROCK1, above 100 µM.

Usually IC50 stands for the concentration at which inhibition is half-maximal. As usually defined, the AUC(0-t) is the area under the concentration-time curve up to a stated or last time point. Low values mean low exposure, high ones high exposure. Usually Cmax stands for the highest concentration seen after dosing. As a reminder, the Tmax is the time at which the peak concentration occurs. In general, half-life refers to the time needed for the level to fall by half in the phase considered. A low value points to rapid decline. One may read the bioavailability as the share of a dose that reaches the circulation, judged against a reference dose that is usually intravenous. A low value points to little systemic uptake.
